In US12577262B2, “Functionalized gold carbene napthaquinone complexes for use in the treatment of cancer” (Board of Regents, The University of Texas System, priority 2019, dated 2026):
Counter-ions that a name gives are not always drawn.

How the values were obtained:
A549 lung cancer cells = experiment: Cell proliferation, 72 h IC50 (Table 3); assay type: cell-based, human; conditions: read-out: 72 h IC50, 3-5 separate experiments
HCT116 Colon = experiment: Cell proliferation, 72 h IC50 (Table 3); assay type: cell-based, human; conditions: read-out: 72 h IC50, 3-5 separate experiments
L929 fibroblasts = experiment: Cell proliferation, 72 h IC50 (Table 3); assay type: cell-based, human
Description: The initial rationale for preparing complexes 1-3 (shown below) involved a systems approach to circumventing the antioxidant network that helps give solid tumors their resiliency.

Panc-02 cells = experiment: CRT translocation to the cell membrane, flow cytometry (percent CRT+ cells); assay type: cell-based, murine
Method: Calreticulin (CRT) translocation from the ER to the cell membrane is a critical mechanistic step in ICD induction. To correlate the findings of ER and mitochondrial stress to ICD induction, murine cancer cell lines (Panc-02 pancreas and CT26 colon) were treated with 3 and assessed for cell membrane CRT translocation (FIG. 4).

[1] = tested on: A549 human lung cancer cell line; experiment: Cell proliferation MTT assay, Example 3 (Table 5); assay type: cell-based; conditions: 72 h incubation
Method: According to previous literature reports, BSA binding can reduce the cytotoxicity of Au(I) bis-NHC complexes (Zou et al., 2014). […] The non-conjugated alcohol 1 and Auranofin were used as benchmark comparisons. Incubation was carried out for 72 h in all cases. […] A549 cells were harvested and seeded into 96-well culture plates (Costar 07-200-90) in 100 μL of culture medium. The cells were allowed to incubate overnight at 37° C. in the presence of 5% CO2. A549 cells were seeded at a density of 1500 cells/well. […] To each well of a 96 well plate was added 100 μL of the appropriate solution. […] After removal of the medium, the resulting formazan was dissolved in […] DMSO and the respective absorbances were measured at 560-650 nm using a microplate reader (Molecular Devices, Sunnyvale, CA). Absorbance values were corrected for background and then normalized to wells containing untreated cells to allow for plate-to-plate comparisons. The resulting dose response curves were subjected to linear regression analysis (Origin by OriginLab, Inc.) for determination of IC50 values. […] Maximum concentration of DMSO used is 0.1%. This concentration of DMSO was determined to be non-toxic in separate control experiments. […] The stock solution was further diluted 10-fold in RPMI media such that the maximum drug concentration used was 10 μM for the dose dependent MTT assay.

[2] = tested on: A549 human lung cancer cell line; experiment: Cell proliferation MTT assay, Example 4 (Table 8); assay type: cell-based; conditions: 72 h treatment, max DMSO 0.1%
A2780 Ovarian = experiment: Cell proliferation, 72 h IC50 (Table 3); assay type: cell-based, human; conditions: read-out: 72 h IC50, 3-5 separate experiments
2780CP Ovarian = experiment: Cell proliferation, 72 h IC50 (Table 3); assay type: cell-based, human; conditions: read-out: 72 h IC50, 3-5 separate experiments
CT26 Colon = conditions: read-out: 72 h IC50, 3-5 separate experiments
[3] = tested on: CT26 mouse colorectal cancer cells; conditions: immunized with CT26 cells treated with oxaliplatin at 150 μM; challenged after 7 days

Row | Compound | IC50 (A549 lung cancer cells) [nM] | IC50 (HCT116 Colon) [nM] | IC50 (A2780 Ovarian) [nM] | IC50 (2780CP Ovarian) [nM] | further results
1 | CC(=O)OC[C@H]1O[C@@H]([S-])[C@H](OC(C)=O)[C@@H](OC(C)=O)[C@@H]1OC(C)=O.CCP(CC)CC.[Au+] [Auranofin] | 1670 | 1300 |  |  | cancer selectivity (L929 fibroblasts; L929 fibroblasts in comparison to A549 lung cancer cells): 2.5 fold; IC50 (L929 fibroblasts; read-out: 72 h IC50, L929 Fibroblasts, 72 h, 3-5 separate experiments): 4200 nM; CRT translocation to the cell membrane (Panc-02 cells; flow cytometry, 3 at 1 μM, auranofin under the same conditions): ineffective; IC50 [1]: 2240 nM; IC50 [2]: 2180 nM
2 | N.N.[Cl][Pt][Cl] [Cisplatin] | 1030 |  | 330 | 7100 | 
3 | COc1cccc2c1C(=O)c1c(O)c3c(c(O)c1C2=O)C[C@@](O)(C(=O)CO)C[C@@H]3O[C@H]1C[C@H](N)[C@H](O)[C@H](C)O1 [Doxorubicin•HCl, Doxorubicin] |  |  |  |  | IC50 ([2]; Homo sapiens): 131 nM
4 | O=C1[O][Pt]2([NH][C@@H]3CCCC[C@H]3[NH]2)[O]C1=O [Oxaliplatin] | 970 | 500 | 150 | 300 | concentration needed to achieve the same CRT+ signal (Panc-02 cells; same CRT+ signal as 3 at 1 μM): 300 µM; IC50 (CT26 Colon): 2000 nM; mice remaining tumor-free at the end of the study [3]: 80%
